System: KRAS patient-derived spheroids with HUVEC/MSC, viability
Assay: Anticancer human tumor 519858-162-T-J1-PDC patient-derived colon adenocarcinoma cell line growth inhibition [KRAS2]
Conditions: for IC50: curve of first compound; for viability, T/C: stronger effect = lower value; active = viability on the fitted dose curve at most 10% of control; inactive = the rest
Source text: Multicellular complex tumor spheroid response to RAS pathway inhibitors in combination with a targeted agents in patient-derived cell lines with oncogenic KRAS variants from multiple cancer types
A high-throughput screen of multi-cell type tumor spheroids was designed to identify active combinations of targeted small molecules and KRAS pathway inhibitors. Complex spheroids include a stromal component modeled by human endothelial cells (HUVEC) and fibroblasts modeled by human mesenchymal stem cells (MSCs). The concentration ranges selected for each drug and investigational agent were based upon clinically achievable concentrations if the clinical Cmax of the agent was known.
Compounds. The drugs and investigational agents: BI-3406 (NSC825286), BAY-293 (NSC824723), batoprotafib (TNO155; NSC825523), sotorasib (AMG 510; NSC818433), MRTX1257 (NSC819558), elimusertib (BAY 1895344; NSC800525), molibresib (GSK525762; NSC774829), temuterkib (LY3214996; NSC803410), venetoclax (NSC766270), alisertib (NSC759677), olaparib (NSC753686), talazoparib (NSC767125), erdafitinib (NSC781556), ipatasertib (NSC767898), cabozantinib (NSC761068), nintedanib (NSC756659), abemaciclib (NSC768073), docetaxel (NSC628503), trametinib (NSC758246), and sapanisertib (NSC764658) were obtained from the National Cancer Institute (NCI) Developmental Therapeutics Program Chemical Repository. The FDA-approved anticancer drug set is available from the Developmental Therapeutics Program. […] The stock solutions were prepared in dimethyl sulfoxide (DMSO, Sigma-Aldrich, St. Louis, MO, cat. D2650) at 800-fold the tested concentration and stored at -70 degrees C prior to their use. All drugs and investigational agents were tested over a range starting from a high concentration at or near the clinical Cmax and decreasing in half-log increments. If the clinical Cmax for an agent had not been determined, the highest concentration tested was 10 microM.
Cell Culture. All cells were maintained in an incubator at 37 degrees C and 5% CO2 with 95% humidity. The PDC lines were cultured according to standard operating procedures established by the NCI PDMR (https://pdmr.cancer.gov/sops/default.htm). Briefly, all PDCs were thawed and cultured in Matrigel-coated flasks prepared with a working solution of 1X Ham's F-12 nutrient mix, without supplementation (Invitrogen, Waltham, MA, cat. 11765054), 100 U/mL penicillin-streptomycin (Invitrogen, cat. 15140122), and 2.5% Matrigel (Corning Inc., Corning, NY, cat. 354248) for the first three passages. All PDCs were cultured in complete DMEM/F-12 media containing advanced DMEM/F-12 (Invitrogen, cat. 12634028), 4.9% defined fetal bovine serum, heat inactivated (HyClone Laboratories Inc., Logan, UT, cat. SH30070.03HI), 389 ng/mL hydrocortisone (Sigma-Aldrich, cat. H4001), 9.7 ng/mL human EGF recombinant protein (Invitrogen, cat. PHG0313), 23.4 microg/mL adenine (Sigma-Aldrich, cat. A2786), 97.3 U/mL penicillin-streptomycin (Invitrogen, cat. 15140122), 1.9 mM L-glutamine (Invitrogen, cat. 25030081), and 9.7 microM Y-27632 dihydrochloride (Tocris Bioscience, Bristol, United Kingdom, cat. 1254). The PDCs were cultured in complete DMEM/F12 media without 9.7 microM Y-27632 dihydrochloride for at least two passages prior to the screen. The established cell line HOP-62 was cultured in RPMI 1640 medium, HEPES (Invitrogen, cat. 22400105) with 10% defined fetal bovine serum (HyClone Laboratories Inc., cat. SH30070.03) and 2 mM L-glutamine (Invitrogen, cat. 25030081). The pooled donor HUVEC were cultured in endothelial cell growth medium 2 (PromoCell, Heidelberg, Germany, cat. C-22011) and the hMSC were cultured in mesenchymal stem cell growth medium 2 (PromoCell, cat. C-28009). For all experiments, HUVEC and hMSC were used at passages </=5, while the malignant cell lines were used at passages </=15. […]

[1] = second compound 0.1 µM, first compound 0.0316 µM
[2] = second compound 0.316 µM, first compound 0.0316 µM
[3] = second compound 1 µM, first compound 0.0316 µM
[4] = second compound 3.16 µM, first compound 0.0316 µM
[5] = second compound 10 µM, first compound 0.0316 µM
[6] = second compound 0.1 µM, first compound 0.1 µM
[7] = second compound 0.1 µM, first compound 0.316 µM
[8] = second compound 0.1 µM, first compound 1 µM
[9] = second compound 0.1 µM, first compound 3.16 µM
[10] = second compound 0.1 µM, first compound 10 µM
[11] = second compound 0.316 µM, first compound 0.1 µM
[12] = second compound 0.316 µM, first compound 0.316 µM
[13] = second compound 0.316 µM, first compound 1 µM
[14] = second compound 0.316 µM, first compound 3.16 µM
[15] = second compound 0.316 µM, first compound 10 µM
[16] = second compound 1 µM, first compound 0.1 µM
[17] = second compound 1 µM, first compound 0.316 µM
[18] = second compound 1 µM, first compound 1 µM
[19] = second compound 1 µM, first compound 3.16 µM
[20] = second compound 1 µM, first compound 10 µM
[21] = second compound 3.16 µM, first compound 0.1 µM
[22] = second compound 3.16 µM, first compound 0.316 µM
[23] = second compound 3.16 µM, first compound 1 µM
[24] = second compound 3.16 µM, first compound 3.16 µM
[25] = second compound 3.16 µM, first compound 10 µM
[26] = second compound 10 µM, first compound 0.1 µM
[27] = second compound 10 µM, first compound 0.316 µM
[28] = second compound 10 µM, first compound 1 µM
[29] = second compound 10 µM, first compound 3.16 µM
[30] = second compound 10 µM, first compound 10 µM
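Note: compound exposure lasted seven days before readout.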

CC(=O)Nc1cccc(-n2c(=O)n(C3CC3)c(=O)c3c(Nc4ccc(I)cc4F)n(C)c(=O)c(C)c32)c1 + COc1cc2nc(C)nc(NC(C)c3cc(N)cc(C(F)(F)F)c3)c2cc1OC1CCOC1
1.01 nM: IC50 (second compound 1 µM)
0.275 nM: IC50 (second compound 3.16 µM)
inactive: viability, T/C (second compound 0.1 µM, first compound 0.0001 µM) 83.3% | viability, T/C (second compound 0.1 µM, first compound 0.000316 µM) 74.2% | viability, T/C (second compound 0.1 µM, first compound 0.001 µM) 65% | viability, T/C (second compound 0.1 µM, first compound 0.00316 µM) 39.6% | viability, T/C (second compound 0.1 µM, first compound 0.01 µM) 36.1% | viability, T/C [1] 12.5% | viability, T/C (second compound 0.316 µM, first compound 0.0001 µM) 64.8% | viability, T/C (second compound 0.316 µM, first compound 0.000316 µM) 85.2% | viability, T/C (second compound 0.316 µM, first compound 0.001 µM) 73.8% | viability, T/C (second compound 0.316 µM, first compound 0.00316 µM) 34.7% | viability, T/C (second compound 0.316 µM, first compound 0.01 µM) 24.2% | viability, T/C [2] 13.8% | viability, T/C (second compound 1 µM, first compound 0.0001 µM) 72.2% | viability, T/C (second compound 1 µM, first compound 0.000316 µM) 59.3% | viability, T/C (second compound 1 µM, first compound 0.001 µM) 53.1% | viability, T/C (second compound 1 µM, first compound 0.00316 µM) 33.6% | viability, T/C (second compound 1 µM, first compound 0.01 µM) 18.5% | viability, T/C [3] 11% | viability, T/C (second compound 3.16 µM, first compound 0.0001 µM) 67.8% | viability, T/C (second compound 3.16 µM, first compound 0.000316 µM) 46.3% | viability, T/C (second compound 3.16 µM, first compound 0.001 µM) 30.6% | viability, T/C (second compound 3.16 µM, first compound 0.00316 µM) 27.7% | viability, T/C (second compound 3.16 µM, first compound 0.01 µM) 11.9% | viability, T/C (second compound 10 µM, first compound 0.0001 µM) 69.2% | viability, T/C (second compound 10 µM, first compound 0.000316 µM) 32.2% | viability, T/C (second compound 10 µM, first compound 0.001 µM) 31.9% | viability, T/C (second compound 10 µM, first compound 0.00316 µM) 6.2%
2.01 nM: IC50 (second compound 0.316 µM)
0.203 nM: IC50 (second compound 10 µM)
active: viability, T/C [4] 8.2% | viability, T/C (second compound 10 µM, first compound 0.01 µM) 4.93% | viability, T/C [5] 3.59%
2.46 nM: IC50 (second compound 0.1 µM)

COc1cc2nccc(Oc3ccc(NC(=O)C4(C(=O)Nc5ccc(F)cc5)CC4)cc3)c2cc1OC + CC1OCC2(CCN(c3cnc(Sc4ccnc(N)c4Cl)c(N)n3)CC2)C1N
> 10000 nM: IC50 (second compound 0.1 µM) | IC50 (second compound 0.316 µM) | IC50 (second compound 1 µM) | IC50 (second compound 3.16 µM) | IC50 (second compound 10 µM)
inactive: viability, T/C [1] 68.4% | viability, T/C [6] 72.7% | viability, T/C [7] 83.2% | viability, T/C [8] 84.7% | viability, T/C [9] 94% | viability, T/C [10] 130% | viability, T/C [2] 64.3% | viability, T/C [11] 62.7% | viability, T/C [12] 78.9% | viability, T/C [13] 92.6% | viability, T/C [14] 150% | viability, T/C [15] 96.4% | viability, T/C [3] 64.4% | viability, T/C [16] 74.4% | viability, T/C [17] 90% | viability, T/C [18] 93.1% | viability, T/C [19] 143% | viability, T/C [20] 85.8% | viability, T/C [4] 57.9% | viability, T/C [21] 68.1% | viability, T/C [22] 88.5% | viability, T/C [23] 71.9% | viability, T/C [24] 80.7% | viability, T/C [25] 99.4% | viability, T/C [5] 78.2% | viability, T/C [26] 92.5% | viability, T/C [27] 110% | viability, T/C [28] 103% | viability, T/C [29] 107% | viability, T/C [30] 70.6%

CC1OCC2(CCN(c3cnc(Sc4ccnc(N)c4Cl)c(N)n3)CC2)C1N (stereo not given) + CNCc1ccccc1-c1csc(C(C)Nc2nc(C)nc3cc(OC)c(OC)cc23)c1
inactive: viability, T/C [1] 97.1% | viability, T/C [6] 99.2% | viability, T/C [7] 85.4% | viability, T/C [8] 59.3% | viability, T/C [9] 54% | viability, T/C [10] 60.4% | viability, T/C [2] 80.6% | viability, T/C [11] 92% | viability, T/C [12] 68% | viability, T/C [13] 60.8% | viability, T/C [14] 69.7% | viability, T/C [15] 58.9% | viability, T/C [3] 72.9% | viability, T/C [16] 83.5% | viability, T/C [17] 77.3% | viability, T/C [18] 50.3% | viability, T/C [19] 35.3% | viability, T/C [20] 66% | viability, T/C [4] 66.6% | viability, T/C [21] 53.9% | viability, T/C [22] 36.1% | viability, T/C [23] 43.1% | viability, T/C [24] 42.7% | viability, T/C [25] 41.2% | viability, T/C [5] 10.2% | viability, T/C [26] 34.6% | viability, T/C [27] 0.2%
> 10000 nM: IC50 (second compound 0.1 µM) | IC50 (second compound 0.316 µM) | IC50 (second compound 1 µM)
< 31.6 nM: IC50 (second compound 10 µM)
active: viability, T/C [28] 0.15% | viability, T/C [29] 6.03% | viability, T/C [30] 13.6%
98.2 nM: IC50 (second compound 3.16 µM)
